Measured values reported in ChEMBL document CHEMBL1131825, “A 2-nitroimidazole carbamate prodrug of 5-amimo-1-(chloromethyl)-3-[(5,6,7-trimethoxyindol-2-yl)carbony l]-1,2-dihydro-3H--benz[E]indole (amino-seco-CBI-TMI) for use with ADEPT and GDEPT” (Bioorg Med Chem Lett, 1999).

Legend:
[1] = system: SK-OV-3; assay: In vitro cytotoxic activity against SKOV3 cell line after 4 hours at less than 0.01 % of oxygen in gas phase; assay type: functional, Homo sapiens
[2] = system: SK-OV-3; assay: In vitro cytotoxicity against SKOV3 cell proliferation after 18 hr exposure in presence of 1 mM NADH + NTR; assay type: functional, cell-based; conditions: Homo sapiens, SK-OV-3, 18 h
[3] = system: SK-OV-3; assay: In vitro cytotoxicity against SKOV3 cell proliferation after 18 hr exposure in absence of reagent; assay type: functional, cell-based; conditions: Homo sapiens, SK-OV-3, 18 h
[4] = system: SK-OV-3; assay: In vitro cytotoxic activity against SKOV3 cell line after 1 hour at 20% oxygen present in gas phase; assay type: functional, Homo sapiens
[5] = system: SK-OV-3; assay: In vitro cytotoxicity against SKOV3 cell proliferation after 18 hr exposure in presence of 1 mM NADH; assay type: functional, cell-based; conditions: Homo sapiens, SK-OV-3, 18 h
[6] = system: SK-OV-3; assay: In vitro cytotoxic activity against SKOV3 cell line after 1 hour at less than 0.01 % of oxygen in gas phase; assay type: functional, Homo sapiens
[7] = system: SC-3; assay: In vitro cytotoxicity against SC3.2 cell proliferation after 18 hr exposure; assay type: functional, cell-based, Homo sapiens; conditions: Mus musculus, SC-3, 18 h
[8] = system: SK-OV-3; assay: In vitro cytotoxic activity against SKOV3 cell line after 4 hours at 20% oxygen present in gas phase; assay type: functional, Homo sapiens

| SMILES | C10 [1] [nM] | IC50 [2] [nM] | IC50 [3] [nM] | C10 [4] [nM] | IC50 [5] [nM] | C10 [6] [nM] | IC50 [7] [nM] | C10 [8] [nM] |
| --- | --- | --- | --- | --- | --- | --- | --- | --- |
| COc1cc2cc(C(=O)N3CC(CCl)c4c3cc(NC(=O)OCc3cnc([N+](=O)[O-])n3C)c3ccccc43)[nH]c2c(OC)c1OC (configuration not stated) | 15 | 8 | 75 | 2100 | 57 | 135 | 3.5 | 600 |
| COc1cc2cc(C(=O)N3CC(CCl)c4c3cc(N)c3ccccc43)[nH]c2c(OC)c1OC (configuration not stated) | – | 1.14 | 1.1 | – | 0.96 | – | 2.17 | – |
